From ChEMBL document CHEMBL1201862, “PubChem BioAssay data set” (2004)
Active and inactive are the calls of the source.

Key:
INS1 = assay: beta cell apoptosis inhibitors, cytokine rescue, dose response, luminescence, retest (AID 449756); type: functional, cell-based; settings: Rattus norvegicus;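 further: cell death triggered by IL-1 beta plus TNF-alpha plus IFN-gamma mixture; protective hits raise ATP signal compared with cytokine alone wells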
[1] = molecular target: T1, Sentrin-specific protease 8 (Homo sapiens, UniProt Q96LD8); type: functional
T1 sequence (Q96LD8 whole entry): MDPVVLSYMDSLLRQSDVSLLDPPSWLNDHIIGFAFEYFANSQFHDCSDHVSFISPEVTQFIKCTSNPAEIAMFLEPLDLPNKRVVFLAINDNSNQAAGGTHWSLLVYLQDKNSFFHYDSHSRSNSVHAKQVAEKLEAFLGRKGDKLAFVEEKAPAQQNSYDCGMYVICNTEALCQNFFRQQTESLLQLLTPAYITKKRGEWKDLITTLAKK

[2] = molecular target: T1, Sentrin-specific protease 8; type: functional; remark: listed apart in the source
[3] = molecular target: T2, Corticotropin-releasing factor receptor 2/Corticotropin-releasing factor-binding protein (Homo sapiens, UniProt P24387+Q13324); assay: activators of CRF receptor 2 with binding protein – uHTS hits, confirmation (AID 602473); type: functional; settings: read-out: EC50_Mean
T2 sequence (Q13324 whole entry): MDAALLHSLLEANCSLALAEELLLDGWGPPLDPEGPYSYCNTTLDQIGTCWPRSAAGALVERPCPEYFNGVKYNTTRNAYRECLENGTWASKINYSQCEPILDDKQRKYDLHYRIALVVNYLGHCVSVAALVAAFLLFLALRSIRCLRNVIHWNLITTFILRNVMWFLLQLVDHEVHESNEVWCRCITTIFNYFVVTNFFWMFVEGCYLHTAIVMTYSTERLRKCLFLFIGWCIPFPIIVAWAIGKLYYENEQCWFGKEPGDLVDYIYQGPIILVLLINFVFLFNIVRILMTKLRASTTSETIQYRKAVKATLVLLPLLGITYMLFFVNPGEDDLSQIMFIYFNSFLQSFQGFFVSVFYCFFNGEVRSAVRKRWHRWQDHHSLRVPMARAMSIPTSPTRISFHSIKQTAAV
T2 sequence (P24387 whole entry): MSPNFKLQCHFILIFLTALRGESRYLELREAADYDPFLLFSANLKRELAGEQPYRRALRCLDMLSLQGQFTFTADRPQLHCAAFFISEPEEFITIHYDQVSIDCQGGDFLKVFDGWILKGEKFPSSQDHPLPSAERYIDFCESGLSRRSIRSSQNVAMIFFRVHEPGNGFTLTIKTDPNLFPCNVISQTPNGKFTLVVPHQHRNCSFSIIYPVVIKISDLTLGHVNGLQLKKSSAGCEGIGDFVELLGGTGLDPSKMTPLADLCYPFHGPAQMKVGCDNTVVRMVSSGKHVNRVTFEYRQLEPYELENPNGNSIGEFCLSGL

[4] = molecular target: Mitochondrial peptide methionine sulfoxide reductase (Bos taurus, UniProt P54149); assay: Absorbance-based biochemical high throughput dose response assay for activators of Methionine sulfoxide reductase A (MsrA).; type: functional
[5] = Fluorescence-based cell-based high throughput dose response assay for inhibitors of the interaction of nucleotide-binding oligomerization domain containing 2 (NOD2) and the receptor-interacting serine-threonine kinase 2 (RIPK2).; type: functional; settings: Homo sapiens
[6] = molecular target: Tyrosyl-DNA phosphodiesterase 2 (Homo sapiens, UniProt O95551); assay: human TDP2 enzyme inhibitors, dose response, biochemical, epi absorbance, IC50 (AID 743297)
Beta Lactamase = Beta Lactamase (Pseudomonas aeruginosa, UniProt Q932Y6); assay: beta-lactamase reporter inhibitor potency, dose response, artefact control for NOD2-RIPK2 interaction inhibitor project, BLA reporter cells, FRET fluorescence (AID 651552); type: functional, cell-based
Melanocortin receptor 4 [7] = molecular target: T3, Melanocortin receptor 4 (Homo sapiens, UniProt P32245); assay: MC4R antagonist potency on cAMP, dose response, cell-based, TR-FRET, biased antagonists (AID 602298); type: functional;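 further: antagonist potency against agonist-stimulated cAMP production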
[8] = Shn3 3'UTR reporter inhibitors, dose response, cell-based, Clone20 osteoblasts, firefly luciferase, cherry-picked (AID 624132); type: functional;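 further: firefly luciferase luminescence from reporter carrying the Shn3 3'UTR in osteoblasts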
[9] = control 3'UTR Renilla luciferase suppression, dose response, counter-screen for Shn3 inhibitor project, cell-based, Clone20-Shn3RL, cherry-picked (AID 624133); type: functional
[10] = HepG2 cell cytotoxicity, dose response, cytotoxicity control for Shn3 inhibitor project, CellTiter-Glo, cherry-picked (AID 624134); type: functional, cell-based
Melanocortin receptor 4 [11] = molecular target: T3, Melanocortin receptor 4; type: functional, cell-based
[12] = molecular target: Hepatocyte nuclear factor 4-alpha (Homo sapiens, UniProt P41235); type: functional, cell-based;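 further: biochemical luminescence-based dose-response counterscreen measuring inhibition of HNF4 dimerization, run alongside a screen for blockers of ABHD5–perilipin-5 interaction; split luciferase complementation of HNF4 fusion proteins in cell lysate measuring dimerization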
[13] = nonselective inhibitors of cellular cAMP signaling, dose response, counter-screen for MC4R biased antagonist project, cell-based, TR-FRET cAMP detection (AID 602305); type: functional;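 further: U2OS cells stimulated with forskolin near its EC80 as the cAMP inducer; potency is for inhibition of forskolin-stimulated cAMP signaling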
[14] = miR-122 activators in hepatoma reporter cells, dose response, cell-based, Huh7 psiCHECK-miR122, Renilla luciferase, cherry-picked (AID 651956); type: functional;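 further: huh7 hepatoma cells stably carrying a psiCHECK-2 miR-122 sensor plasmid; renilla luciferase signal reporting endogenous miR-122 activity after 48 h compound exposure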
cells [15] = type: functional, cell-based
[16] = molecular target: T4, DNA repair protein RAD52 homolog (Homo sapiens, UniProt P43351); type: functional, biochemical
T4 sequence (P43351 whole entry): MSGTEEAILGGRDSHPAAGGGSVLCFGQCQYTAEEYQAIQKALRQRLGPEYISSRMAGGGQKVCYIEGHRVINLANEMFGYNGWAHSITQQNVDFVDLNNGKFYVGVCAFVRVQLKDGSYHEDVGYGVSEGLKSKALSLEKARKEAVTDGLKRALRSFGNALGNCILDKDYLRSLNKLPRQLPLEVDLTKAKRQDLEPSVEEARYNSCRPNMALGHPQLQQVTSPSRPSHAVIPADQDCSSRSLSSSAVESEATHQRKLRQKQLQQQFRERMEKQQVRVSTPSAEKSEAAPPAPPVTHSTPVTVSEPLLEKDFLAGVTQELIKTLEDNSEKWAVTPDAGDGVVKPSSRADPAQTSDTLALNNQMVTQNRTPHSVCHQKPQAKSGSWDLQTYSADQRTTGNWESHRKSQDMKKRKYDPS

BJ [17] = assay: cytotoxicity toward BJ-TERT-LT-ST fibroblasts, dose response, cell-based, RAS-independent, luminescence (AID 1935); type: functional; settings: Homo sapiens;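 further: BJ fibroblasts immortalized with TERT plus LT and ST oncogenes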
[18] = molecular target: DNA repair and recombination protein RAD54-like (Homo sapiens, UniProt Q92698); assay: inhibitors of human RAD54 branch migration, confirmation, biochemical, fluorescence, cherry-picked samples, dose series (AID 651657); type: functional
[19] = Luminescence Cell-Based Dose Confirmation HTS to Identify Activators of 5'UTR Stem-Loop Driven Alpha-Synuclein mRNA Translation in H4 Neuroglioblastoma Cells. [Related pubchem assays: 1829 (Project Summary), 1814 (Primary HTS)]; type: functional
[20] = MDA-MB-231 cell growth inhibition, dose response, cytotoxicity control for RAD54 inhibitor project, CellTiter-Glo luminescence, cherry-pick (AID 651692); type: functional, cell-based
BJ [21] = assay: cells; type: functional, cell-based; settings: Homo sapiens
[22] = inhibitors of intracellular T. cruzi replication, confirmation, NIH3T3 host cells, beta-gal luminescence (AID 2044); type: functional, cell-based;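 further: intracellular parasites grown in NIH/3T3 mouse fibroblasts as host cells; luminescent beta-galactosidase reporter signal from transgenic T. cruzi replicating inside host cells; inhibitors lower the luminescence signal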
[23] = cytotoxicity toward DRD oncogenic fibroblasts, dose response, cell-based, non-viral oncogenic, luminescence (AID 1934); type: functional; settings: Homo sapiens
[24] = cytotoxicity toward NIH3T3 fibroblasts, dose response, counter-screen, cell-based, ATP luminescence, mouse fibroblasts (AID 2010); type: functional;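 further: cells exposed to compound for about 90 hours before reading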
BJ [25] = assay: cytotoxicity toward BJ-TERT fibroblasts, dose response, cell-based, RAS-independent, luminescence (AID 1933); type: functional; settings: Homo sapiens
H4 = assay: Luminescence Cell-Based Dose Response HTS to Identify Activators of 5'UTR Stem-Loop Driven Prion Protein mRNA Translation in H4 Neuroglioblastoma Cells. [Related pubchem assays: 1829 (Project Summary), 1814 (Primary HTS)]; type: functional; settings: Homo sapiens
cells [26] = type: functional, cell-based; remark: listed apart in the source
[27] = Luminescence Cell-Based Dose Response HTS to Identify Activators of Luciferase Translation or Activity in H4 […] Cells. [Related pubchem assays: 1829 (Project Summary), 1814 (Primary HTS)]; type: functional

T3 sequence (P32245 whole entry): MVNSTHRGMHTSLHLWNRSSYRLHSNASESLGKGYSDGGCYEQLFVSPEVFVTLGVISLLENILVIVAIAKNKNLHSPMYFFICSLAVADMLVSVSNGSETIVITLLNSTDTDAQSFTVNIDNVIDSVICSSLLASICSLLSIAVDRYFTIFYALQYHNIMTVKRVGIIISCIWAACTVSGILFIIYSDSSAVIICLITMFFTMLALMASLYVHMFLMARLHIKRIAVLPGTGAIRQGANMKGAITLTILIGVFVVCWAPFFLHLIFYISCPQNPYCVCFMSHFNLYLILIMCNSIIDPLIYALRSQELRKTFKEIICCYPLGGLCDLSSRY
Tyrosyl-DNA phosphodiesterase 2, sequence (O95551 whole entry): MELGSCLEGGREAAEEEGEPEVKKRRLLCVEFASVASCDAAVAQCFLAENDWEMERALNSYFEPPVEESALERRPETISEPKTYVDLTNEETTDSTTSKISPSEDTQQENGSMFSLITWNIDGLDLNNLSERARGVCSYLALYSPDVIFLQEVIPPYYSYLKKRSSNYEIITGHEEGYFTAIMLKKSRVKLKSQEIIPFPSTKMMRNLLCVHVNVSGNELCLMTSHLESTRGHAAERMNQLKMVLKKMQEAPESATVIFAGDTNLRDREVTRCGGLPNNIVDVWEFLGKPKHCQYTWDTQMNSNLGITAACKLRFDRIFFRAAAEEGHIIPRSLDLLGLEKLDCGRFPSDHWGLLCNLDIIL
DNA repair and recombination protein RAD54-like, sequence (Q92698 whole entry): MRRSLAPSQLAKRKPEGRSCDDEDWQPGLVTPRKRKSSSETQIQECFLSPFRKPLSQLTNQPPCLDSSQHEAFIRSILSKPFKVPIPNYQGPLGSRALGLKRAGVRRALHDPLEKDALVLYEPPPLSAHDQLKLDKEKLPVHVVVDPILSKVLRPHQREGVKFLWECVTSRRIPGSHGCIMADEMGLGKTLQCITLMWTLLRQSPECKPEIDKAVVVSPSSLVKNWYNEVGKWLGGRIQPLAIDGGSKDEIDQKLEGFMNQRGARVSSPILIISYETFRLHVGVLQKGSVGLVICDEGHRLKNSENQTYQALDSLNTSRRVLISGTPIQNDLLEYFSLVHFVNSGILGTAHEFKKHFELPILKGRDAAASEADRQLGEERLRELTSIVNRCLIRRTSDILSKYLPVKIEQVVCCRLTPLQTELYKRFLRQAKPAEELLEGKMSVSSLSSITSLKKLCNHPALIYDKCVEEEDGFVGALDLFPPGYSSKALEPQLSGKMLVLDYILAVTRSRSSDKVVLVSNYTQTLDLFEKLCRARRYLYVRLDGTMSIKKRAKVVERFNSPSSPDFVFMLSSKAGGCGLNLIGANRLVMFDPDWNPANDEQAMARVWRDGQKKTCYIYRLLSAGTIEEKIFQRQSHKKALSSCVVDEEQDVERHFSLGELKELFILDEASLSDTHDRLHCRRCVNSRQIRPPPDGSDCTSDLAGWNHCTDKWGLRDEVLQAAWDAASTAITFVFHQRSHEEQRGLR
Beta Lactamase, sequence (Q932Y6 whole entry): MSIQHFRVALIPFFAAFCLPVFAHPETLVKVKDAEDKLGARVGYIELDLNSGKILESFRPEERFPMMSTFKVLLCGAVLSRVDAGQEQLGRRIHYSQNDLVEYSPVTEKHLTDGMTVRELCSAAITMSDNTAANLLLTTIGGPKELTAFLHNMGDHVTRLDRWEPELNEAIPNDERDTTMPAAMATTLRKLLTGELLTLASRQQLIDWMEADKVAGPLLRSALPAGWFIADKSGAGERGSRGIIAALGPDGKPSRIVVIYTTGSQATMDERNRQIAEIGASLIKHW
Mitochondrial peptide methionine sulfoxide reductase, sequence (P54149 whole entry, the tested form may be a part): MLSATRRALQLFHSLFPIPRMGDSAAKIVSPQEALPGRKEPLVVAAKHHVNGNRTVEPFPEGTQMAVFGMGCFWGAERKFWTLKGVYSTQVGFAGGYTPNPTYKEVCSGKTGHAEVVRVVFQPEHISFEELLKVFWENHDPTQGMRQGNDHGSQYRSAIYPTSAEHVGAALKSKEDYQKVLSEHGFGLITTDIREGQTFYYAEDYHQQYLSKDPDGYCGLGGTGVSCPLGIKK
Hepatocyte nuclear factor 4-alpha, sequence (P41235 whole entry, the tested form may be a part): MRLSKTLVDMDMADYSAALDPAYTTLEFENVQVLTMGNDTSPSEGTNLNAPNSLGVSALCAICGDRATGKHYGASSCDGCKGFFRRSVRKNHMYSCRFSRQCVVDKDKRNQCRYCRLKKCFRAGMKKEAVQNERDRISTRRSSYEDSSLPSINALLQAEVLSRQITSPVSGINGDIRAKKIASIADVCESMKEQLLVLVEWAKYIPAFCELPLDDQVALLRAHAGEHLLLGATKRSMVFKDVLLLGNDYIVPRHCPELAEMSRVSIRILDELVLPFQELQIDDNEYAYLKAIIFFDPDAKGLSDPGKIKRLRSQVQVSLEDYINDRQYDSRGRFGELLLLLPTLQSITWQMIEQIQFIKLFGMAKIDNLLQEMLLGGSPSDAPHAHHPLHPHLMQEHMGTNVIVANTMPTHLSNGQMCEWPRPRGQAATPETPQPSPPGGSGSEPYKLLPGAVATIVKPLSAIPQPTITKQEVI

COc1ccccc1N1C(C)=CC(=C(C#N)c2nc3ccccc3s2)C=C1C
AC50 (INS1): 5.19 µM (active) | IC50 [1]: 9.58 µM (active) | IC50 [2]: 4.86 µM (active) | EC50 [3]: 16.1 µM (active)

CC1OC2CC(=O)OC2C2=C1C(=O)c1c(O)cccc1C2=O (stereo not given)
EC50 [4]: 21 µM (inactive) | IC50 [5]: 2.14 µM (active) | IC50 [6]: 12 µM (inactive) | IC50 (Beta Lactamase): 38.2 µM (inactive)

CC(O)CC(=O)OC[C@]12CC[C@H]3[C@@](C)(CC[C@H]4C(C)(C)CCC[C@]34C)[C@@H]1CC(C1=CC(=O)OC1O)O2 (stereo not given in full)
IC50 (Melanocortin receptor 4 [7]): 22 µM (inactive) | AC50 [8]: 3.75 µM (active) | AC50 [9]: 5.5 µM (active) | AC50 [10]: 22.1 µM (active) | EC50 (Melanocortin receptor 4 [11]): > 89.2 µM (inactive) | IC50 [12]: 3.53 µM (active) | IC50 [13]: > 64.6 µM (inactive)

C/C=C/c1ccc([C@H]2[C@H](CO)N[C@H]2CN(CC(C)C)C(=O)c2ccccn2)cc1
AC50 [14]: 5.62 µM (active)

c1ccc2c(NCCc3c[nH]c4ccccc34)c3ccccc3nc2c1
EC50 (cells [15]): 29.3 µM (active) | AC50 [16]: 1.41 µM (active) | EC50 (BJ [17]): 6.42 µM (inconclusive) | AC50 [18]: 3.17 µM (active) | EC50 [19]: > 120 µM (not active) | AC50 [20]: 33.1 µM (active) | EC50 (BJ [21]): 8.56 µM (inconclusive) | EC50 [22]: 1.43 µM (active) | EC50 [23]: 7.86 µM (active) | EC50 [24]: 11.9 µM (active) | EC50 (BJ [25]): 4.9 µM (active) | EC50 (H4): > 120 µM (not active) | EC50 (cells [26]): > 350 µM (not active) | EC50 [27]: 4.86 µM (active)
